Results as given in patent US20210269451A1, “PYRIDINYL HETEROCYCLYL COMPOUNDS FOR THE TREATMENT OF AUTOIMMUNE DISEASE” (Hoffmann-La Roche Inc., priority 2018, published 2021).

Columns and labels:
hTLR9 = target: T1, hTLR9 (Homo sapiens, UniProt Q9NR96); assay: HEK293-Blue-hTLR-9 cells assay; type: cell-based; design: host or cells: HEK293-Blue-hTLR-9 (HEK293); conditions: HEK293-Blue-hTLR9 cells, ODN2006 stimulation, 20 hrs, SEAP reporter; read-out: HEK/hTLR9 IC50
T1 sequence (Q9NR96 26-1032): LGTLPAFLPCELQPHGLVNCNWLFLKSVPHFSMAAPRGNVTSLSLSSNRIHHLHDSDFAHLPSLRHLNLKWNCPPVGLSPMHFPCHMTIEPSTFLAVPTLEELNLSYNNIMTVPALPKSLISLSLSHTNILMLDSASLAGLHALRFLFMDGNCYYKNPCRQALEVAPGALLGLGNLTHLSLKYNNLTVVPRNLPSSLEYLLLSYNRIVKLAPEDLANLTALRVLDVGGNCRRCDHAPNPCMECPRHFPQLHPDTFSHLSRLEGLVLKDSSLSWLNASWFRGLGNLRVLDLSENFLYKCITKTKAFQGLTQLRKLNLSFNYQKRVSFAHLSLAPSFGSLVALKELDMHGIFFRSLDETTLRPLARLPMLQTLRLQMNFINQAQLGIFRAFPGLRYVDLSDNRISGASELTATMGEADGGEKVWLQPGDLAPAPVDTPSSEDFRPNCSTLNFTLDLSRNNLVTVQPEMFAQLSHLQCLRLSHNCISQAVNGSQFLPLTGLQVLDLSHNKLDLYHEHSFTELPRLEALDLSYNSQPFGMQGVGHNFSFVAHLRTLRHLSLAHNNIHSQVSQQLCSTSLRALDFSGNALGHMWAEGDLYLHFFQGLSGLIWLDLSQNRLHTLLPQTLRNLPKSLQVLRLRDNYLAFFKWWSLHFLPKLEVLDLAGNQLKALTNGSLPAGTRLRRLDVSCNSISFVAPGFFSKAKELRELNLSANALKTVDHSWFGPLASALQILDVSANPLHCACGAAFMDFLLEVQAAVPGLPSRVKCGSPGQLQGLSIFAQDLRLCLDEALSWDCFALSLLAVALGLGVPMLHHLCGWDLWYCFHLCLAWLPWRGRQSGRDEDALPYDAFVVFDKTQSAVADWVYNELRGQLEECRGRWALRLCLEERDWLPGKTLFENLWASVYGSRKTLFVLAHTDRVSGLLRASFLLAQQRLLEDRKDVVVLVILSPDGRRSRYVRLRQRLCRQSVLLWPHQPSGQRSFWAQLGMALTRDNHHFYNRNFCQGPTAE
Method: The following tests were carried out in order to determine the activity of the compounds of formula (I) and (Ia) in HEK293-Blue-hTLR-7/8/9 cells assay.
HEK293-Blue-hTLR-9 cells assay:
A stable HEK293-Blue-hTLR-9 cell line was purchased from InvivoGen (Cat. #: hkb-htlr9, San Diego, Calif., USA). These cells were originally designed for studying the stimulation of human TLR9 by monitoring the activation of NE-KB. A SEAP (secreted embryonic alkaline phosphatase) reporter gene was placed under the control of the IFN-β minimal promoter fused to five NE-κB and AP-1-binding sites. The SEAP was induced by activating NE-κB and AP-1 via stimulating HEK-Blue hTLR9 cells with TLR9 ligands. Therefore the reporter expression was declined by TLR9 antagonist under the stimulation of a ligand, such as ODN2006 (Cat. #: tlrl-2006-1, Invivogen, San Diego, Calif., USA), for incubation of 20 hrs. The cell culture supernatant SEAP reporter activity was determined using QUANTI-Blue™ kit (Cat. #: rep-qb1, Invivogen, San Diego, Calif., USA) at a wavelength of 640 nm, a detection medium that turns purple or blue in the presence of alkaline phosphatase.
HEK293-Blue-hTLR9 cells were incubated at a density of 250,000˜450,000 cells/mL in a volume of 170 μL in a 96-well plate in Dulbecco's Modified Eagle's medium (DMEM) containing 4.5 g/L glucose, 50 U/mL penicillin, […], […], 2 mM L-glutamine, 10% (v/v) heat-inactivated fetal bovine serum with addition of 20 μL test compound in a serial dilution in the presence of final DMSO at 1% and 10 μL of 20 uM ODN2006 in above DMEM, perform incubation under 37° C. in a CO2 incubator for 20 hrs. Then 20 μL of the supernatant from each well was incubated with 180 μL Quanti-blue substrate solution at 37° C. for 2 h and the absorbance was read at 620˜655 nm using a spectrophotometer. The signaling pathway that TLR9 activation leads to downstream NE-κB activation has been widely accepted, and therefore similar reporter assay was modified for evaluating TLR9 antagonist.

CYP2D6 = target: T2, CYP2D6 (Homo sapiens, UniProt P10635); assay: CYP inhibition assay in human liver microsome; type: in vitro ADME; conditions: human liver microsomes, probe dextromethorphan, dextromethorphan substrate, percentage inhibition <0: not or weak inhibitor, read-out: CYP 2D6 inhibition %@10 μM
T2 construct: tissue BD-Gentest 452117; host or cells: human liver microsomes
Method: The compounds would be desirable to have minimal DDI liabilities. Therefore, the effects of compounds of formula (I) or (Ia) on CYP2D6 are determined.
This is a high throughput screening assay used for assessment of reversible inhibition of CYP2D6 activity of test compounds in human liver microsome (HLM) in early discovery stage.
10 mM DMSO stock solutions of test compounds were diluted in DMSO to generate 2 mM intermediate stock solution. 250 nL of intermediate stock solution were transferred in duplicate into 3 separate 384 well microtitre plates (assay-ready plates). A mixture of HLM and each substrate was made up. 45 μL of HLM substrate mix was then transferred to each well of an assay ready plate and mixed. The negative (solvent) and positive control (standard inhibitor for CYP 2D6) were included in each assay ready plate. The assay ready plate was warmed to 37° C. in an incubator over 10 minutes. 5 μL pre-warmed NADPH regenerating system was added to each incubation well to start the reaction. Final incubation volume was 50 μL. The assay plate then was placed back in the 37° C. incubator. After 10 minutes incubation, incubates were quenched by addition of 50 μL 100% acetonitrile containing internal standards (20 ng/mL D3-Dextrorphan). The supernatants were collected for RapidFire/MS/MS analysis.
RapidFire online solid phase extraction/sample injection system (Agilent) coupled with API4000 triple quadrupole mass spectrometer (AB Sciex) were used for sample analysis. The mobile phase composed of acetonitrile and water supplemented with 0.1% formic acid. A C4 solid phase extraction cartridge is used for sample separation. MS detection is achieved in positive ion MRM mode.
Data analysis Peak areas for substrate, metabolite and internal standard are determined using the RapidFire integrator software (version 3.6.12009.12296). Peak area ratios (PAR) of metabolite and internal standard (stable-labelled metabolite) are then calculated. The measurement window for each experiment is then defined:
PAR (0% activity), average PAR for all incubations containing concentrated inhibitor; Par (100% activity), average PAR for all incubations containing no inhibitor (DMSO controls);
% Activity (test inhibitor)=
=[PAR(test inhibitor)-PAR(0% activity)]/[PAR(100% activity)-PAR(0% activity)];
% Inhibition (test inhibitor)=100-% Activity (test inhibitor).

T2 sequence (P10635 whole entry): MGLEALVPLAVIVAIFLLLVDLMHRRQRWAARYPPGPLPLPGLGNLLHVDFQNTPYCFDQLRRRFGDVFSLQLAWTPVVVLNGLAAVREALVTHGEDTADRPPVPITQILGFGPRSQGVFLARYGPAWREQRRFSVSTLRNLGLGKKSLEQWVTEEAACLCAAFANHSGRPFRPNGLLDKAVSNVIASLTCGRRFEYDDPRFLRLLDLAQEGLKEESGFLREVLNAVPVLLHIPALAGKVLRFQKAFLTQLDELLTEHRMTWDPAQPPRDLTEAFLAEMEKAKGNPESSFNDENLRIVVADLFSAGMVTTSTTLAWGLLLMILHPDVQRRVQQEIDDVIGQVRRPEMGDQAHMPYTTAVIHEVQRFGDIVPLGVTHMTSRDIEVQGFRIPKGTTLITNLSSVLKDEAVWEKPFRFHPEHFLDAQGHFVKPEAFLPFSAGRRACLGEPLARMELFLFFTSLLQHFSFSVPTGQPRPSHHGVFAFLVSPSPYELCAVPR

Row | Structure (SMILES) | IC50 (hTLR9) [nM] | inhibition at 10 min, 10 μM (CYP2D6) [%]
1 | Cc1cc(N2CC(NC[C@H]3CN(c4ccc(C#N)c5ncccc45)C[C@@H](C)O3)CC(F)(F)C2)cc(CO)n1 (stereo partly drawn) [Example 36] | 215 | –
2 | CNc1cc(N2CCN(C[C@H]3CN(c4ccc(C#N)c5ncccc45)C[C@@H](C)O3)CC2)cc(C)n1 [Example 42, 5-[(2R,6S)-2-methyl-6-[[4-[2-methyl-6-(methylamino)-4-pyridyl]piperazin-1-yl]methyl]morpholin-4-yl]quinoline-8-carbonitrile] | < 32 | -0.5
3 | Cc1cc(N2CCOC3(CN(C[C@H]4CN(c5ccc(C#N)c6ncccc56)C[C@@H](C)O4)C3)C2)ccn1 [Example 16] | 38 | 5
4 | C[C@@H]1CN(c2ccc(C#N)c3ncccc23)C[C@H](CNC2CCN(c3ccnc(N)c3)CC2)O1 [Example 20, 5-[(2S,6R)-2-[[[1-(2-amino-4-pyridyl)-4-piperidyl]amino]methyl]-6-methyl-morpholin-4-yl]quinoline-8-carbonitrile] | 36 | –
5 | Cc1cc(N2CCOC3CN(CC4CN(c5ccc(C#N)c6ncccc56)CC(C)O4)CC32)cc(C)n1 (single isomer, unassigned) [Example 17A] | 154 | –
6 | C[C@@H]1CN(c2ccc(C#N)c3ncccc23)C[C@H](CN2CC3(C2)CN(c2ccnc(C(C)(C)O)c2)C3)O1 [Example 48, 5-[(2S,6R)-2[[2-[2-(1-hydroxy-1-methyl-ethyl)-4-pyridyl]-2,6-diazaspiro[3.3]heptan-6-yl]methyl]-6-methyl-morpholin-4-yl]quinoline-8-carbonitrile] | 148 | –
7 | Cc1cc(NC2CCN(C[C@H]3CN(c4ccc(C#N)c5ncccc45)C[C@@H](C)O3)CC2)cc(CO)n1 [Example 5] | 32 | 7.5
8 | Cc1cc(C2CCN(C[C@H]3CN(c4ccc(C#N)c5ncccc45)C[C@@H](C)O3)CC2)cc(N)n1 [Example 43, 5-[(2S,6R)-2-[[4-(2-amino-6-methyl-4-pyridyl)-1-piperidyl]methyl]-6-methyl-morpholin-4-yl]quinoline-8-carbonitrile] | 54 | -13
9 | C[C@@H]1CN(c2ccc(C#N)c3ncccc23)C[C@H](CN2CC3(C2)CN(c2ccnc(C4CC4)c2)C3)O1 [Example 49, 5-[(2S,6R)-2[[2-(2-cyclopropyl-4-pyridyl)-2,6-diazaspiro[3.3]heptan-6-yl]methyl]-6-methyl-morpholin-4-yl]quinoline-8-carbonitrile] | 34 | –
10 | Cc1cc(N2CCC23CN(C[C@H]2CN(c4ccc(C#N)c5ncccc45)C[C@@H](C)O2)C3)cc(C)n1 [Example 8] | < 32 | –
11 | C[C@@H]1CN(c2ccc(C#N)c3ncccc23)C[C@H](CN2CCN(c3ccnc(N)c3)CC2)O1 [Example 19, 5-[(2S,6R)-2-[[4-(2-amino-4-pyridyl)piperazin-1-yl]methyl]-6-methyl-morpholin-4-yl]quinoline-8-carbonitrile] | 62 | –

Further lines, results first:

Row | IC50 (hTLR9) [nM] | inhibition at 10 min, 10 μM (CYP2D6) [%] | Structure (SMILES)
12 | 145 | – | Cc1cc(N2CCN(C[C@H]3CN(c4ccc(C#N)c5ncccc45)C[C@@H](C)O3)[C@H](C)C2)cc(CO)n1 [Example 4B]
13 | 57 | – | Cc1cc(N2CC[C@@H](NC[C@H]3CN(c4ccc(C#N)c5ncccc45)C[C@@H](C)O3)C2)cc(CO)n1 [Example 28]
14 | 88 | 8.5 | Cc1cc(N2CC(NC[C@H]3CN(c4ccc(C#N)c5ncccc45)C[C@@H](C)O3)C2)cc(CO)n1 [Example 30]
15 | 91 | -2.5 | C[C@@H]1CN(c2ccc(C#N)c3ncccc23)C[C@H](CN2CCN(c3cc(N)nc(CO)c3)CC2)O1 [Example 45, 5-[(2S,6R)-2-[[4-[2-amino-6-(hydroxymethyl)-4-pyridyl]piperazin-1-yl]methyl]-6-methyl-morpholin-4-yl]quinoline-8-carbonitrile]
16 | 49 | -3 | Cc1cc(N2CCC23CN(C[C@H]2CN(c4ccc(C#N)c5ncccc45)C[C@@H](C)O2)C3)cc(CO)n1 [Example 12]
17 | 59 | – | Cc1cc(N2CC[C@H](NC[C@H]3CN(c4ccc(C#N)c5ncccc45)C[C@@H](C)O3)C2)cc(CO)n1 [Example 29]
18 | < 32 | 8.5 | Cc1cc(N2CCC[C@H](NC[C@H]3CN(c4ccc(C#N)c5ncccc45)C[C@@H](C)O3)C2)cc(CO)n1 [Example 25]
19 | 41 | 8 | Cc1cc(NC2CCN(C[C@H]3CN(c4ccc(C#N)c5ncccc45)C[C@@H](C)O3)C2)cc(CO)n1 (stereo partly drawn) [Example 6]
20 | < 32 | – | Cc1cc(N2CCC(NC[C@H]3CN(c4ccc(C#N)c5ncccc45)C[C@@H](C)O3)CC2)cc(CO)n1 [Example 23]
21 | 122 | – | Cc1cc(N2CC[C@H](F)[C@H](NC[C@H]3CN(c4ccc(C#N)c5ncccc45)C[C@@H](C)O3)C2)cc(CO)n1 [Example 33]
22 | 148 | – | Cc1cc(N2CCN(C[C@H]3CN(c4ccc(C#N)c5ncccc45)C[C@@H](C)O3)[C@@H](C)C2)cc(CO)n1 [Example 4A]
23 | 160 | – | Cc1cc(N2CC(N(C)C[C@H]3CN(c4ccc(C#N)c5ncccc45)C[C@@H](C)O3)C2)cc(CO)n1 [Example 37]
24 | 155 | – | Cc1cc(N2CC[C@@H](F)[C@H](NC[C@H]3CN(c4ccc(C#N)c5ncccc45)C[C@@H](C)O3)C2)cc(CO)n1 [Example 34]
